From publication PMC3961628 (American Journal of Cardiovascular Drugs, 2013)
Like-named read-outs stand apart in the source and are kept apart here.

How the values were obtained:
[1] = type: in vivo, healthy human subjects; details: for AUC(0-t) / AUC(0-inf) / Cmax: geometric mean (% CV); for AUC(0-inf): AUCINF; for Cmax: C max; for half-life: T ½
Safety assessments = type: in vivo, healthy human subjects
[2] = Stability of apixaban in human plasma; type: in vitro ADME; details: at −20 °C
[3] = cited from earlier work
[4] = single oral 20-mg radiolabeled dose; bile collected 3–8 h after dose; cited from earlier work
[5] = BDC rats, intravenous [14C]apixaban; cited from earlier work
[6] = BDC dogs, cited from earlier work
[7] = system: major uptake transporters; details: cited from earlier work
[8] = cited from earlier work; remark: listed apart in the source
[9] = human, plasma, oral, 20 mg, Treatment A: apixaban 20 mg alone, n = 18
[10] = human, plasma, oral, Treatment B: apixaban 20 mg + activated charcoal 2 h after apixaban, n = 14
[11] = human, plasma, oral, Treatment C: apixaban 20 mg + activated charcoal 6 h after apixaban, n = 17
[12] = apixaban 2.5 mg solution released in the ascending colon
[13] = apixaban 2.5 mg solution released in the distal small bowel

COc1ccc(-n2nc(C(N)=O)c3c2C(=O)N(c2ccc(N4CCCCC4=O)cc2)CC3)cc1 [apixaban, 1-(4-methoxyphenyl)-7-oxo-6-(4-(2-oxopiperidin-1-yl)phenyl)-4,5,6,7-tetrahydro-1H-pyrazolo[3,4-c]pyridine-3-carboxamide]
T ½ ([1]; Treatment A: apixaban 20 mg alone, n = 18, mean (SD)): 13.4 (5.1) h
T max ([1]; Treatment C: apixaban 20 mg + activated charcoal 6 h after apixaban, n = 17, median (range)): 2.5 (1.5–4.0) h
Decrease in apixaban exposure (AUCINF) vs apixaban alone ([1]; activated charcoal administered at 2 h post-dose): 50%
Decrease in apixaban exposure (AUCINF) vs apixaban alone ([1]; activated charcoal administered at 6 h post-dose): 28%
Effect of activated charcoal on C max or T max of apixaban ([1]; charcoal at 2 or 6 h post-dose): no effect
Tmax ([1]; human, plasma, oral, 20 mg): 2.5 h
AUC(0-t) [1, 9]: 4080 ng·h/mL
AUC(0-inf) [1, 9]: 4180 ng·h/mL
Cmax [1, 9]: 380 ng/mL
AUC(0-t) ([1]; human, plasma, oral, Treatment B: apixaban 20 mg + activated charcoal 50 g 2 h after apixaban, n = 14): 2010 ng·h/mL
AUC(0-t) ([1]; human, plasma, oral, Treatment C: apixaban 20 mg + activated charcoal 50 g 6 h after apixaban, n = 17): 2950 ng·h/mL
AUC(0-inf) [1, 10]: 2030 ng·h/mL
AUC(0-inf) [1, 11]: 2980 ng·h/mL
Cmax [1, 10]: 366 ng/mL
Cmax [1, 11]: 383 ng/mL
half-life ([1]; human, plasma, oral, Treatment B: apixaban 20 mg + activated charcoal 2 h after apixaban, n = 14, mean (SD)): 5.3 h
half-life ([1]; human, plasma, oral, Treatment C: apixaban 20 mg + activated charcoal 6 h after apixaban, n = 17, mean (SD)): 4.9 h
Time for which mean plasma concentrations were quantifiable ([1]; single oral 20-mg dose without activated charcoal, LLOQ 1 ng/mL): up to 72 h
Proportion of subjects reporting adverse events (Safety assessments; apixaban 20 mg alone): 16.7%
Tolerability (Safety assessments; healthy subjects, single 20-mg doses): well tolerated
Stability in human plasma [2]: at least 864 days
Oral bioavailability ([3]; background statement): approximately 50%
Effect of food and changes in gastric pH on apixaban exposure [3]: no clinically relevant effect
Terminal half-life (T ½) [3]: approximately 12 h
Time to peak plasma concentration (C max) ([3]; oral administration, immediate-release tablet, background statement): approximately 3 h
Biliary excretion, share of total recovered radioactivity [4]: less than 3%
Dose found in feces [5]: 20–30 % of the dose
Dose found in feces ([6]; intravenous [14C]apixaban): 40–50 % of the dose
Effect of activated charcoal on fecal recovery and apparent systemic clearance [6]: increased fecal recovery and apparent systemic clearance
Substrate status for major uptake transporters [7]: not a substrate
AUC(0–T) lower than with oral administration [8, 12]: 84%
C max lower than with oral administration [8, 12]: 90%
AUC(0–T) lower than with oral administration [8, 13]: approximately 60%
C max lower than with oral administration [8, 13]: approximately 60%
